melting point: 159 to 160 °C
Structure (SMILES): CCCC(O)c1c(CC)nc2c(-c3ccc(Cl)cc3Cl)nccn12 (stereo not shown) [Example 7, 8-(2,4-dichlorophenyl)-2-ethyl-3-(1-hydroxybutyl)imidazo[1,2-a]pyrazine]

Source: patent US6589952B2, “Imidazo[1,2-a]pyrazines for the treatment of neurological disorders” (Bristol-Myers Squibb Pharma Company, priority 2000, dated 2003)
